Assay results: patent US8686146B2, “Azaindenoisoquinoline topoisomerase I inhibitors” (Purdue Research Foundation, priority 2012, dated 2014)
Where a name gives a salt, the structure may show the parent alone. Read-outs that look alike come from different tables or passages of the source.

Tests used:
[1] = tested on: approximately 60 different human cancer cell lines; assay: NCI screen, mean graph midpoint over all cell lines; format: cell-based; details: all human cancer cell lines successfully tested, 48 h
Procedure: (§1) Cells of approximately 60 different human cancer cell lines were incubated for 48 h with five 10-fold dilutions of the tested compounds starting from 100 μM and then treated with sulforhodamine B dye. The ratios of recorded optical densities relative to that of the control were plotted as a function of the common logarithm of the tested compound concentrations. […] The GI50 and the mean graph midpoint (MGM) values of the prepared indenoisoquinolines in selected cell lines are presented in Table I.
(§2) The antiproliferative activity of each compound was determined in the National Cancer Institute (NCI) screen as described above. Cells of approximately 60 different human cancer cell lines were incubated for 48 h with five 10-fold dilutions of the test compounds starting from 100 μM, and then treated with sulforhodamine B dye. The ratios of recorded optical densities relative to those of the control were plotted as a function of the common logarithm of the tested compound concentrations. […] The GI50 and the mean graph midpoint (MGM) values of the prepared (aza)indeno-isoquinolines in selected cell lines are presented in Table 2.

[2] = tested on: HOP-62; assay: NCI screen antiproliferative activity, lung HOP-62
Procedure: as §1, §2

[3] = tested on: HCT-116; assay: NCI screen antiproliferative activity, colon HCT-116
Procedure: as §1, §2

[4] = tested on: SF-539; assay: NCI screen antiproliferative activity, CNS SF-539
Procedure: as §1, §2

[5] = tested on: UACC-62; assay: NCI screen antiproliferative activity, melanoma UACC-62
Procedure: as §1, §2

[6] = tested on: SN12C; assay: NCI screen antiproliferative activity, renal SN12C
Procedure: as §1, §2

[7] = tested on: DU-145; assay: NCI screen antiproliferative activity, prostate DU-145
Procedure: as §1, §2

[8] = tested on: MCF7; assay: NCI screen antiproliferative activity, breast MCF7
Procedure: as §1, §2

[9] = molecular target: T1, human recombinant Top1 (Homo sapiens, UniProt P11387); assay: Top1-mediated DNA cleavage assay; format: biochemical; details: semiquantitative, relative to compounds 1 and 2
T1 construct: made in house
T1 sequence (P11387 1-765): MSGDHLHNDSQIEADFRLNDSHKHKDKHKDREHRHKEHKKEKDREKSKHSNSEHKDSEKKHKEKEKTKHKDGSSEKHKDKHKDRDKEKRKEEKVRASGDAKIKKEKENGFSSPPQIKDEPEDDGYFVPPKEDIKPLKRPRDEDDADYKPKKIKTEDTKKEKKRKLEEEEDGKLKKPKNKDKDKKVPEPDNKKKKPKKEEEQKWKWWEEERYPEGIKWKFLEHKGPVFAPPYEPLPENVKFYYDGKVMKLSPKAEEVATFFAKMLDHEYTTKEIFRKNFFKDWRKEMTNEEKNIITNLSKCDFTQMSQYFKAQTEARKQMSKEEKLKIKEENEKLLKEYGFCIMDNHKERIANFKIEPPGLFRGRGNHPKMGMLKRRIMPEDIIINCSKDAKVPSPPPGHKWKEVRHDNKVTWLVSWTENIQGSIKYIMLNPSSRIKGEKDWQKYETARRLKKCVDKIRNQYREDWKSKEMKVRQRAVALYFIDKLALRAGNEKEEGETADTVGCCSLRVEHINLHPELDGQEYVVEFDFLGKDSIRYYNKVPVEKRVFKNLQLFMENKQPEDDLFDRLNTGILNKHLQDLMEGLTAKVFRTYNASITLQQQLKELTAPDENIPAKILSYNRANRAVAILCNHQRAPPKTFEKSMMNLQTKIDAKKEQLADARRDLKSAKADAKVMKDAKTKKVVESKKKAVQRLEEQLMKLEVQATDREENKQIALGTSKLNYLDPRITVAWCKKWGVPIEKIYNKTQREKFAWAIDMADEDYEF
Procedure: Unincorporated [^32P]dGTP was removed using mini Quick […] columns (Roche, Indianapolis, Ind.), and the eluate containing the […] DNA substrate was collected. […] Aliquots of each reaction mixture were subjected to 20% denaturing PAGE. […] The DNA fragments were separated on a denaturing gel. […] All of the target compounds were tested for induction of DNA damage in Top1-mediated DNA cleavage assays, as described above.

[10] = tested on: OVCAR-3; assay: NCI screen antiproliferative activity, ovarian OVCAR-3
Procedure: as §1, §2

[11] = Homo sapiens, HOP-62, 48 h, read-out: cytotoxicity (GI50) lung HOP-62, 48 h, sulforhodamine B, single determination, Table 1
[12] = Homo sapiens, HOP-62, 48 h, read-out: cytotoxicity (GI50) lung HOP-62, 48 h, sulforhodamine B, single determination, Table 2
[13] = Homo sapiens, HCT-116, 48 h, read-out: cytotoxicity (GI50) colon HCT-116, 48 h, sulforhodamine B, single determination, Table 1
[14] = Homo sapiens, HCT-116, 48 h, read-out: cytotoxicity (GI50) colon HCT-116, 48 h, sulforhodamine B, single determination, Table 2
[15] = Homo sapiens, 48 h, read-out: cytotoxicity (GI50) CNS SF-539, 48 h, sulforhodamine B, single determination, Table 2
[16] = Homo sapiens, UACC-62, 48 h, read-out: cytotoxicity (GI50) melanoma UACC-62, 48 h, sulforhodamine B, single determination, Table 1
[17] = Homo sapiens, UACC-62, 48 h, read-out: cytotoxicity (GI50) melanoma UACC-62, 48 h, sulforhodamine B, single determination, Table 2
[18] = Homo sapiens, SN12C, 48 h, read-out: cytotoxicity (GI50) renal SN12C, 48 h, sulforhodamine B, single determination, Table 1
[19] = Homo sapiens, SN12C, 48 h, read-out: cytotoxicity (GI50) renal SN12C, 48 h, sulforhodamine B, single determination, Table 2
[20] = Homo sapiens, DU-145, 48 h, read-out: cytotoxicity (GI50) prostate DU-145, 48 h, sulforhodamine B, single determination, Table 1
[21] = Homo sapiens, DU-145, 48 h, read-out: cytotoxicity (GI50) prostate DU-145, 48 h, sulforhodamine B, single determination, Table 2
[22] = Homo sapiens, MCF7, 48 h, read-out: cytotoxicity (GI50) breast MCF7, 48 h, sulforhodamine B, single determination, Table 2
[23] = Homo sapiens, MCF7, 48 h, read-out: cytotoxicity (GI50) breast MCF7, 48 h, sulforhodamine B, single determination, Table 1
[24] = Homo sapiens, OVCAR-3, 48 h, read-out: cytotoxicity (GI50) ovarian OVCAR-3, 48 h, sulforhodamine B, single determination, Table 1

CC[C@@]1(O)C(=O)OCc2c1cc1n(c2=O)Cc2cc3ccccc3nc2-1 [Compound 1, camptothecin, reference compound]
MGM (mean graph midpoint for growth inhibition) ([1]; Table 1): 0.04 µM | MGM (mean graph midpoint for growth inhibition) ([1]; Table 2): 0.040 µM | GI50 [2, 11]: 10 nM | GI50 [2, 12]: 10 nM | GI50 [3, 13]: 30 nM | GI50 [3, 14]: 30 nM | GI50 [4, 15]: 10 nM | GI50 [5, 16]: 10 nM | GI50 [5, 17]: 10 nM | GI50 [6, 18]: 20 nM | GI50 [6, 19]: 20 nM | GI50 [7, 20]: 10 nM | GI50 [7, 21]: 10 nM | GI50 [8, 22]: 13 nM

COc1cc2c3c(n(C)c(=O)c2cc1OC)-c1cc2c(cc1C3=O)OCO2 [Compound 2, reference compound]
MGM (mean graph midpoint for growth inhibition) ([1]; Table 1): 8.51 µM | MGM (mean graph midpoint for growth inhibition) ([1]; Table 2): 8.5 µM | GI50 [2, 11]: 2820 nM | GI50 [2, 12]: 2800 nM | GI50 [3, 13]: 11500 nM | GI50 [3, 14]: 11500 nM | GI50 [4, 15]: 1700 nM | GI50 [5, 17]: 560 nM | GI50 [6, 18]: 25700 nM | GI50 [6, 19]: 26000 nM | GI50 [7, 20]: 4790 nM | GI50 [7, 21]: 4800 nM | GI50 [8, 23]: 1910 nM | GI50 [8, 22]: 1900 nM

CN(C)CCCn1c2c(c3ccccc3c1=O)C(=O)c1cccnc1-2 [Compound 18, 7-Aza-5,6-dihydro-6-(3-dimethylaminopropyl)-5,11-dioxo-11H-indeno[1,2-c]-isoquinoline Hydrochloride]
Top1 Cleavage ([9]; Table 1): +++ | MGM (mean graph midpoint for growth inhibition) ([1]; Table 1): 1.78 µM | GI50 [2, 11]: 1510 nM | GI50 [3, 13]: 410 nM | GI50 [5, 16]: 2690 nM | GI50 [10, 24]: 2570 nM | GI50 [6, 18]: 810 nM | GI50 [7, 20]: 1350 nM | GI50 [8, 23]: 250 nM

CN(C)CCCn1c2c(c3ccc([N+](=O)[O-])cc3c1=O)C(=O)c1cccnc1-2.Cl [Compound 20, 7-Aza-5,6-dihydro-6-(3-dimethylaminopropyl)-3-nitro-5,11-dioxo-11H-indeno[1,2-c]isoquinoline Hydrochloride]
MGM (mean graph midpoint for growth inhibition) ([1]; Table 1): 1.86 µM | GI50 [2]: 2350 nM | GI50 [3]: 440 nM | GI50 [4]: 2690 nM | GI50 [5]: 3310 nM | GI50 [10]: 2290 nM | GI50 [6]: 1000 nM | GI50 [7]: 930 nM | GI50 [8]: 360 nM

Cl.O=C1c2cccnc2-c2c1c1ccccc1c(=O)n2CCCN1CCOCC1 [Compound 21, 7-Aza-5,6-dihydro-6-(3-morpholinopropyl)-5,11-dioxo-11H-indeno[1,2-c]iso-quinoline Hydrochloride]
MGM (mean graph midpoint for growth inhibition) ([1]; Table 1): 15.49 µM | GI50 [2]: 35500 nM | GI50 [3]: 1860 nM | GI50 [4]: 5620 nM | GI50 [5]: > 100000 nM | GI50 [10]: 28200 nM | GI50 [6]: 5370 nM | GI50 [7]: 3550 nM | GI50 [8]: 2750 nM

O=C1c2cccnc2-c2c1c1ccc([N+](=O)[O-])cc1c(=O)n2CCCN1CCOCC1 [Compound 23, 7-Aza-5,6-dihydro-6-(3-morpholinopropyl)-3-nitro-5,11-dioxo-1H-indeno-[1,2-c]isoquinoline Hydrochloride]
Top1 Cleavage ([9]; Table 1): +++

COc1cc2c3c(n(CCCn4ccnc4)c(=O)c2cc1OC)-c1ncccc1C3=O [Compound 29, 7-Aza-5,6-dihydro-6-(3-(1H-imidazol-1-yl)propyl)-2,3-dimethoxy-5,11-dioxo-11H-indeno[1,2-c]isoquinoline]
Top1 Cleavage ([9]; Table 1): ++

COc1cc2c3c(n(CCCNCCO)c(=O)c2cc1OC)-c1ncccc1C3=O.Cl [Compound 31, 7-Aza-5,6-dihydro-6-(3-(2-hydroxyethylamino)propyl)-2,3-dimethoxy-5,11-dioxo-11H-indeno[1,2-c]isoquinoline Hydrochloride]
MGM (mean graph midpoint for growth inhibition) ([1]; Table 1): 0.29 µM | GI50 [2]: 300 nM | GI50 [3]: 150 nM | GI50 [4]: 260 nM | GI50 [5]: 120 nM | GI50 [10]: 340 nM | GI50 [6]: 230 nM | GI50 [7]: 320 nM | GI50 [8]: 74 nM

COc1cc2c3c(n(CCCN)c(=O)c2cc1OC)-c1ncccc1C3=O.Cl [Compound 32, 7-Aza-5,6-dihydro-6-(3-aminopropyl)-2,3-dimethoxy-5,11-dioxo-11H-indeno[1,2-c]isoquinoline Hydrochloride]
MGM (mean graph midpoint for growth inhibition) ([1]; Table 1): 2.09 µM | GI50 [2]: 3020 nM | GI50 [3]: 380 nM | GI50 [4]: 2190 nM | GI50 [5]: 8130 nM | GI50 [10]: 1580 nM | GI50 [6]: 2880 nM | GI50 [7]: 1620 nM | GI50 [8]: 49000 nM

CN(C)CCCn1c2c(c3ccccc3c1=O)C(=O)c1ccccc1-2 [Compound 33, reference compound]
MGM (mean graph midpoint for growth inhibition) ([1]; Table 1): 1.86 µM | GI50 [2, 11]: 1740 nM | GI50 [3, 13]: 580 nM | GI50 [5, 16]: 510 nM | GI50 [10, 24]: 1660 nM | GI50 [6, 18]: 910 nM | GI50 [7, 20]: 1320 nM | GI50 [8, 23]: 550 nM

COc1cc2c3c(n(CCCN(C)C)c(=O)c2cc1OC)-c1cccnc1C3=O.O=C(O)C(F)(F)F [Compound 37, 10-Aza-5,6-dihydro-6-(3-dimethylaminopropyl)-2,3-dimethoxy-5,11-dioxo-11H-indeno[1,2-c]isoquinoline Trifluoroacetate]
Top1 Cleavage ([9]; Table 2): ++

COc1ccc2c(n1)C(=O)c1c-2n(CCCN(C)C)c(=O)c2cc(OC)c(OC)cc12.O=C(O)C(F)(F)F [Compound 45, 10-Aza-5,6-dihydro-6-(3-dimethylaminopropyl)-2,3,9-trimethoxy-5,11-dioxo-11H-indeno[1,2-c]isoquinoline Trifluoroacetate]
Top1 Cleavage ([9]; Table 2): +++

COc1ccc2c(n1)C(=O)c1c-2n(CCCN2CCOCC2)c(=O)c2cc(OC)c(OC)cc12.O=C(O)C(F)(F)F [Compound 46, 10-Aza-5,6-dihydro-6-(3-(4-morpholino)propyl)-2,3,9-trimethoxy-5,11-dioxo-11H-indeno[1,2-c]isoquinoline Trifluoroacetate]
Top1 Cleavage ([9]; Table 2): +++

COc1cc2c3c(n(CCCN(C)C)c(=O)c2cc1OC)-c1cnccc1C3=O.O=C(O)C(F)(F)F [Compound 117, 8-Aza-5,6-dihydro-6-(3-dimethylaminopropyl)-2,3-dimethoxy-5,11-dioxo-11H-indeno[1,2-c]isoquinoline Trifluoroacetate]
Top1 Cleavage ([9]; Table 2): ++
